SMILES strings stand for the structures. “And” between values parts separate entries of the source, which are not always exact repeats. Equal values may be shown once. Read-outs that look alike come from different tables or passages of the source.

Assay type in all cases: in vivo
The subject of one data set is Triticum aestivum. The method, then: (§1) A plastic cup with a diameter of 8 cm and a depth of 6.5 cm was filled with soil. Seeds of wheat (Triticum aestivum) and one or more kinds of test plant selected from Alopecurus myosuroides, Lolium multiflorum, Setaria viridis, Sinapis arvensis and Stellaria media were sowed in the cup, and then grown in a greenhouse until Triticum aestivum was grown in the second to third leaf stage. Then, a test dilution containing predetermined amounts of the present compound, a compound selected from Group A and a compound selected from Group B was sprayed onto the whole plants uniformly. The test dilution was prepared by dissolving a predetermined amount of each compound in a 2% solution of Tween 20 (polyoxyethylene sorbitan fatty acid ester, MP Biomedicals, Inc.) in dimethylformamide and then diluting the solution with water, and then mixing the respective water dilutions thus obtained of the present compound, a compound selected from Group A and a compound selected from Group B. After the spray treatment, the plants were grown in a greenhouse for 21 days.

Another data set deals with Alopecurus myosuroides. As to the kind of experiment: Test Example 1: greenhouse spray test, herbicidal effect on Alopecurus myosuroides. The method, then:
as §1, with “days. The herbicidal effect was rated in 101 levels from 0 (no effect) to 100 (complete death).” for “days.”

The next data set has as its system Lolium multiflorum. Nature of the data set: Test Example 1: greenhouse spray test, herbicidal effect on Lolium multiflorum. The method, then: as §1
In another data set the test system is Stellaria media. As to the kind of experiment: Test Example 1: greenhouse spray test, herbicidal effect on Stellaria media. As to the method:
as §1

A further data set relates to Sinapis arvensis. As to the kind of experiment: Test Example 1: greenhouse spray test, herbicidal effect on Sinapis arvensis. The method, then: as §1, with “days. The herbicidal effect was rated in 101 levels from 0 (no effect) to 100 (complete death).” for “days.”
The next data set relates to Setaria viridis. Nature of the data set: Test Example 1: greenhouse spray test, herbicidal effect on Setaria viridis. As to the method:
as §1, with “days. The herbicidal effect was rated in 101 levels from 0 (no effect) to 100 (complete death).” for “days.”

[1] abbreviates: amount of chemical 6.3 g/ha, 21 days after spray, scale 0 (no effect) to 100 (complete death).
Where [2] appears, read: amount of chemical 25 g/ha, 21 days after spray, scale 0 (no effect) to 100 (complete death).
[3] abbreviates: amount of chemical 0.1 g/ha, 21 days after spray, scale 0 (no effect) to 100 (complete death).
The mark [4] stands for this setting: amount of chemical 0.2 g/ha, 21 days after spray, scale 0 (no effect) to 100 (complete death).
The mark [5] stands for this setting: Lolium multiflorum, 504 h, amount of chemical 6.3 g/ha, 21 days after spray, scale 0 (no effect) to 100 (complete death), read-out: herbicidal effect on Lolium multiflorum.
Where [6] appears, read: amount of chemical 5 g/ha, 21 days after spray, scale 0 (no effect) to 100 (complete death).
[7] abbreviates: amount of chemical 20 g/ha, 21 days after spray, scale 0 (no effect) to 100 (complete death).
The mark [8] stands for this setting: amount of chemical 200 g/ha, 21 days after spray, scale 0 (no effect) to 100 (complete death).
[9] abbreviates: Lolium multiflorum, 504 h, read-out: herbicidal effect on Lolium multiflorum.
[10] abbreviates: amount of chemical 0.25 g/ha, 21 days after spray, scale 0 (no effect) to 100 (complete death).
[11] abbreviates: amount of chemical 3.1 g/ha, 21 days after spray, scale 0 (no effect) to 100 (complete death).

For the compound `CCc1cc(CC)c(-c2c(OC(=O)OC)c(C)nn(C)c2=O)c(CC)c1` [I-b-36], the “herbicidal effect on Triticum aestivum” value in the data set with Triticum aestivum (amount of chemical 25 g/ha) turned out to be 10. Besides, in the data set with Alopecurus myosuroides (amount of chemical 25 g/ha), the “herbicidal effect on Alopecurus myosuroides” value was determined as 50.
In the case of `CCc1cc(C)cc(CC)c1-c1c(OC(C)=O)c(C)nn(C)c1=O` [I-b-14], in the data set on Triticum aestivum (setting [1]), the “herbicidal effect on Triticum aestivum” value is on record as 5. In addition, in the data set with Lolium multiflorum (setting [1]), the “herbicidal effect on Lolium multiflorum” value was 70.
With `COC(=O)c1sccc1S(=O)(=O)NC(=O)Nc1nc(C)nc(OC)n1` [Thifensulfuron-methyl, thifensulfuron-methyl], the “herbicidal effect on Stellaria media” value with Stellaria media (amount of chemical 1 g/ha) was found to be 50.
On to `CCOC(=O)Oc1c(C)nn(C)c(=O)c1-c1c(CC)cc(C)cc1CC` [I-b-18], for which the “herbicidal effect on Triticum aestivum” value in the data set with Triticum aestivum (amount of chemical 25 g/ha) and with Triticum aestivum (setting [2]) was 10 throughout. In addition, the “herbicidal effect on Lolium multiflorum” value with Lolium multiflorum (amount of chemical 25 g/ha) and in the data set on Lolium multiflorum (setting [2]) was 30 throughout. The “herbicidal effect on Stellaria media” value with Stellaria media (amount of chemical 25 g/ha) is 5.
Turning to `COc1ncc(F)c2nc(S(=O)(=O)Nc3c(F)cccc3F)nn12` [Florasulam, florasulam], the “herbicidal effect on Triticum aestivum” value in the data set with Triticum aestivum (amount of chemical 0.1 g/ha), in the data set with Triticum aestivum (setting [3]) and in the data set with Triticum aestivum (setting [4]) was 0 each time. In addition, the “herbicidal effect on Lolium multiflorum” value with Lolium multiflorum (amount of chemical 0.1 g/ha), in the data set on Lolium multiflorum (setting [3]) and in the data set on Lolium multiflorum (setting [4]) was 0 in each case.
Turning to `O=C(O)c1nc(Cl)ccc1Cl` [Clopyralid], the “herbicidal effect on Triticum aestivum” value in the data set on Triticum aestivum (amount of chemical 100 g/ha) is listed as 0. The “herbicidal effect on Alopecurus myosuroides” value in the data set on Alopecurus myosuroides (amount of chemical 100 g/ha) is given as 0.
Take `CCOC(=O)c1nc(C(Cl)(Cl)Cl)n(-c2ccc(Cl)cc2Cl)n1` [Fenchlorazole-ethyl, fenchlorazole-ethyl]: in the data set on Lolium multiflorum (Lolium multiflorum, 504 h, amount of chemical 5 g/ha, 21 days after spray, scale 0 (no effect) to 100 (complete death)), the pest or weed control at 5 g/ha came to 0%. Moreover, in the data set with Lolium multiflorum (setting [5]), the pest or weed control at 6.3 g/ha is 0%. Besides, the “herbicidal effect on Sinapis arvensis” value in the data set with Sinapis arvensis (setting [6]) and with Sinapis arvensis (amount of chemical 6.3 g/ha) was 0 throughout. For the same compound, the “herbicidal effect on Setaria viridis” value in the data set with Setaria viridis (amount of chemical 6.3 g/ha) was found to be 0.
Consider `Nc1c(Cl)c(F)nc(OCC(=O)O)c1Cl` [Fluroxypyr], for which, in the data set with Triticum aestivum (setting [2]), the “herbicidal effect on Triticum aestivum” value turned out to be 0. Besides, the “herbicidal effect on Alopecurus myosuroides” value in the data set on Alopecurus myosuroides (setting [2]) was 0. The “herbicidal effect on Stellaria media” value with Stellaria media (setting [2]) came out at 40.
As for `COc1nc(C)nc(NC(=O)NS(=O)(=O)c2ccccc2Cl)n1` [Chlorsulfuron], the “herbicidal effect on Alopecurus myosuroides” value in the data set on Alopecurus myosuroides (amount of chemical 1 g/ha) was found to be 0.
As to `O=C(O)COc1ccc(Cl)cc1Cl` [2,4-D], in the data set with Triticum aestivum (amount of chemical 25 g/ha), the “herbicidal effect on Triticum aestivum” value is given as 0. In addition, in the data set on Sinapis arvensis (amount of chemical 25 g/ha), the “herbicidal effect on Sinapis arvensis” value was 80. The “herbicidal effect on Setaria viridis” value with Setaria viridis (amount of chemical 25 g/ha) was found to be 0.
For the compound `CCCCCC(C)OC(=O)COc1ccc(Cl)c2cccnc12` (stereo not drawn) [Cloquintocet-mexyl, cloquintocet-mexyl], the pest or weed control at 6.3 g/ha with Lolium multiflorum (setting [5]) was determined as 0%. The “herbicidal effect on Sinapis arvensis” value in the data set on Sinapis arvensis (setting [1]) is 0. The “herbicidal effect on Alopecurus myosuroides” value in the data set with Alopecurus myosuroides (amount of chemical 6.3 g/ha) and in the data set with Alopecurus myosuroides (setting [1]) was 0 throughout. Also, in the data set on Stellaria media (setting [1]), the “herbicidal effect on Stellaria media” value is 0.
In turn, `COc1c(Cl)ccc(Cl)c1C(=O)O` [Dicamba] gave a pest or weed control at 50 g/ha in the data set on Lolium multiflorum (Lolium multiflorum, 504 h, amount of chemical 50 g/ha) of 0%.
Compound `CCc1cc(C)cc(CC)c1-c1c(O)c(C)nn(C)c1=O` [I-a-14, 4-(2,6-diethyl-4-methylphenyl)-5-hydroxy-2,6-dimethyl-3(2H)-pyridazinone] showed a pest or weed control at 25 g/ha with Lolium multiflorum (Lolium multiflorum, 504 h, amount of chemical 25 g/ha, 21 days after spray, scale 0 (no effect) to 100 (complete death)) of 90%. For the same compound, the “herbicidal effect on Sinapis arvensis” value in the data set with Sinapis arvensis (setting [2]) is given as 60. In addition, in the data set on Alopecurus myosuroides (setting [2]), the “herbicidal effect on Alopecurus myosuroides” value is 90. Also, the “herbicidal effect on Stellaria media” value in the data set on Stellaria media (setting [2]) is on record as 50.
Regarding `N#Cc1cc(Br)c(O)c(Br)c1` [Bromoxynil, bromoxynil], the “herbicidal effect on Triticum aestivum” value with Triticum aestivum (setting [7]) was 0; with Triticum aestivum (setting [8]), 5. In addition, the pest or weed control at 20 g/ha in the data set on Lolium multiflorum (setting [9]) is 0%. In the data set with Lolium multiflorum (setting [9]), the pest or weed control at 200 g/ha was determined as 0%. For the same compound, the “herbicidal effect on Stellaria media” value with Stellaria media (setting [7]) was 0; in the data set with Stellaria media (setting [8]), 10.
Consider `Cc1nn(C)c(O)c1C(=O)c1ccc(C(F)(F)F)cc1S(C)(=O)=O` [Pyrasulfotole, pyrasulfotole], for which, in the data set with Triticum aestivum (setting [7]), the “herbicidal effect on Triticum aestivum” value is given as 15. Further, the “herbicidal effect on Lolium multiflorum” value with Lolium multiflorum (setting [7]) amounted to 0. In the data set on Sinapis arvensis (setting [7]), the “herbicidal effect on Sinapis arvensis” value is reported as 70.
Turning to `COC(=O)c1ccccc1S(=O)(=O)NC(=O)N(C)c1nc(C)nc(OC)n1` [Tribenuron-methyl, tribenuron-methyl], the “herbicidal effect on Triticum aestivum” value with Triticum aestivum (setting [10]) came to 0. This compound returned a pest or weed control at 0.25 g/ha in the data set on Lolium multiflorum (Lolium multiflorum, 504 h, amount of chemical 0.25 g/ha, 21 days after spray, scale 0 (no effect) to 100 (complete death)) of 0%. In addition, the “herbicidal effect on Stellaria media” value in the data set on Stellaria media (setting [10]) is 90 and 80.
With `CCc1cc(CC)c(-c2c(O)c(C)nn(C)c2=O)c(CC)c1` [I-a-17], the “herbicidal effect on Triticum aestivum” value with Triticum aestivum (setting [6]) is on record as 5. The “herbicidal effect on Lolium multiflorum” value with Lolium multiflorum (setting [6]) is on record as 10. The “herbicidal effect on Sinapis arvensis” value with Sinapis arvensis (setting [6]) is recorded as 30.
For the compound `CCc1cc(C)cc(C)c1-c1c(O)c(C)nn(C)c1=O` [I-a-18], the “herbicidal effect on Triticum aestivum” value in the data set with Triticum aestivum (setting [1]) was found to be 5. The “herbicidal effect on Lolium multiflorum” value in the data set on Lolium multiflorum (setting [1]) is listed as 60. Moreover, the “herbicidal effect on Stellaria media” value with Stellaria media (setting [1]) was 5.
Take `CCOC(=O)C1=NN(c2ccc(Cl)cc2Cl)C(C)(C(=O)OCC)C1` (stereo not drawn) [Mefenpyr-diethyl, mefenpyr-diethyl]: the “herbicidal effect on Triticum aestivum” value in the data set with Triticum aestivum (setting [11]), with Triticum aestivum (amount of chemical 6.3 g/ha) and in the data set with Triticum aestivum (setting [1]) was 0 each time. Further, in the data set on Lolium multiflorum (setting [9]), the pest or weed control at 3.1 g/ha was determined as 0%. Further, the pest or weed control at 6.3 g/ha in the data set on Lolium multiflorum (setting [9]) is 0%. The “herbicidal effect on Lolium multiflorum” value with Lolium multiflorum (amount of chemical 6.3 g/ha) was 0. Moreover, the “herbicidal effect on Stellaria media” value in the data set on Stellaria media (setting [11]), in the data set with Stellaria media (amount of chemical 6.3 g/ha) and with Stellaria media (setting [1]) was 0 each time.
Regarding `CCc1cc(C)cc(CC)c1-c1c(OC(=O)OC)c(C)nn(C)c1=O` [I-b-25], in the data set on Triticum aestivum (amount of chemical 25 g/ha), the “herbicidal effect on Triticum aestivum” value came to 5. Besides, the “herbicidal effect on Sinapis arvensis” value in the data set on Sinapis arvensis (amount of chemical 25 g/ha) was determined as 20. The “herbicidal effect on Setaria viridis” value in the data set on Setaria viridis (amount of chemical 25 g/ha) is 95.
In the case of `COC(=O)c1ccccc1S(=O)(=O)NC(=O)Nc1nc(C)nc(OC)n1` [Metsulfuron-methyl, metsulfuron-methyl], in the data set with Triticum aestivum (setting [3]), the “herbicidal effect on Triticum aestivum” value is on record as 0. Also, in the data set with Lolium multiflorum (Lolium multiflorum, 504 h, amount of chemical 0.1 g/ha, 21 days after spray, scale 0 (no effect) to 100 (complete death)), the pest or weed control at 0.1 g/ha is 0%. The “herbicidal effect on Sinapis arvensis” value in the data set with Sinapis arvensis (setting [3]) was determined as 70.
As for `CCOC(=O)Oc1c(C)nn(C)c(=O)c1-c1c(C)cc(C)cc1CC` [I-b-35], the “herbicidal effect on Triticum aestivum” value in the data set with Triticum aestivum (amount of chemical 25 g/ha) was determined as 10. Moreover, the “herbicidal effect on Alopecurus myosuroides” value in the data set on Alopecurus myosuroides (amount of chemical 25 g/ha) turned out to be 50.
